Test results reported in patent US10501451B2, “Selective NR2B antagonists” (BRISTOL-MYERS SQUIBB COMPANY, priority 2015, dated 2019).
Read-outs that look alike come from different tables or passages of the source.

Key:
[1] = target: NR2B-subtype NMDA receptors (Rattus norvegicus (Rat), UniProt P35439+Q00960); assay: Radioligand binding assay (3H Ro 25-6981 competition, rat forebrain membranes); settings: 3H Ro 25-6981 (4 nM)
Protocol: Radioligand Binding Assay. Binding experiments to determine binding to NR2B-subtype NMDA receptors were performed on forebrains of 8-10 weeks old male Sprague Dawley rats (Harlan, Netherlands) using ^3H Ro 25-6981 (Mutel V; Buchy D; Klingelschmidt A; Messer J; Bleuel Z; Kemp J A; Richards J G. Journal of Neurochemistry, 1998, 70(5):2147-2155. Rats were decapitated without anesthesia using a Guillotine (approved by animal ethics committee) and the harvested brains were snap-frozen and stored at −80° C. for 3-6 months for membrane preparation.
For membrane preparation, rat forebrains were thawed on ice for 20 minutes in homogenization buffer composed of 50 mM KH2PO4 (pH adjusted to 7.4 with KOH), 1 mM EDTA, 0.005% Triton X 100 and protease inhibitor cocktail (Sigma Aldrich). Thawed brains were homogenized using a Dounce homogenizer and centrifuged at 48000×g for 20 min. The pellet was resuspended in cold buffer and homogenized again using a Dounce homogenizer. Subsequently, the homogenate was aliquoted, snap-frozen and stored at −80° C. for not more than 3-4 months.
To perform the competition binding assay, thawed membrane homogenate was added to each well of a 96-well plate (20 μg/well). The experimental compounds were serially diluted in 100% DMSO and added to each row of the assay plate to achieve desired compound concentrations, keeping the DMSO concentration in the assay plate at 1.33% of the final reaction volume. Next, ^3H Ro 25-6981 (4 nM) was added to the assay plate. After incubation for 1 hr at room temperature, the membrane bound radioligand was harvested on to GF/B filter plates (treated with 0.5% PEI for 1 hr at room temperature). The filter plates were dried at 50° C. for 20 mins, incubated with microscint 20 for 10 minutes and finally, the counts were read on TopCount (Perkin Elmer).

mice = assay: Mouse Forced Swim Test (mFST); type: in vivo; settings: 1 mg/Kg i.v., 15 min before 6 min swim session
Protocol: Mouse Forced Swim Test (mFST). Forced Swim Test (FST) is an animal model used to assess antidepressant compounds in preclinical studies. The FST was performed similar to the method of Porsolt et al. with modifications (Porsolt R D, Bertin A, Jalfre M. Behavioral despair in mice: a primary screening test for antidepressants. Arch Int Pharmacodyn Thér 1977; 229:327-36). In this paradigm, mice are forced to swim in an inescapable cylinder filled with water. Under these conditions, mice will initially try to escape and eventually develop immobility behavior; this behavior is interpreted as a passive stress-coping strategy or depression-like behavior. […] The duration of immobility was evaluated during the total 6 min of the test and expressed as duration (sec) of immobility. […] All testing sessions were recorded with a video camera (Sony Handicam, Model: DCR-HC38E; PAL) and scoring was done using the Forced Swim Scan, Version 2.0 software (Clever Systems Inc., Reston, Va., USA; see Hayashi E, Shimamura M, Kuratani K, Kinoshita M, Hara H. Automated experimental system capturing three behavioral components during murine forced swim test. Life Sci. 2011 Feb. 28; 88(9-10):411-7 and Yuan P, Tragon T, Xia M, Leclair C A, Skoumbourdis A P, Zheng W, Thomas C J, Huang R, Austin C P, Chen G, Guitart X. Phosphodiesterase 4 inhibitors enhance sexual pleasure-seeking activity in rodents. […]

Chain of NR2B-subtype NMDA receptors (Q00960 27-1482, other chains not shown): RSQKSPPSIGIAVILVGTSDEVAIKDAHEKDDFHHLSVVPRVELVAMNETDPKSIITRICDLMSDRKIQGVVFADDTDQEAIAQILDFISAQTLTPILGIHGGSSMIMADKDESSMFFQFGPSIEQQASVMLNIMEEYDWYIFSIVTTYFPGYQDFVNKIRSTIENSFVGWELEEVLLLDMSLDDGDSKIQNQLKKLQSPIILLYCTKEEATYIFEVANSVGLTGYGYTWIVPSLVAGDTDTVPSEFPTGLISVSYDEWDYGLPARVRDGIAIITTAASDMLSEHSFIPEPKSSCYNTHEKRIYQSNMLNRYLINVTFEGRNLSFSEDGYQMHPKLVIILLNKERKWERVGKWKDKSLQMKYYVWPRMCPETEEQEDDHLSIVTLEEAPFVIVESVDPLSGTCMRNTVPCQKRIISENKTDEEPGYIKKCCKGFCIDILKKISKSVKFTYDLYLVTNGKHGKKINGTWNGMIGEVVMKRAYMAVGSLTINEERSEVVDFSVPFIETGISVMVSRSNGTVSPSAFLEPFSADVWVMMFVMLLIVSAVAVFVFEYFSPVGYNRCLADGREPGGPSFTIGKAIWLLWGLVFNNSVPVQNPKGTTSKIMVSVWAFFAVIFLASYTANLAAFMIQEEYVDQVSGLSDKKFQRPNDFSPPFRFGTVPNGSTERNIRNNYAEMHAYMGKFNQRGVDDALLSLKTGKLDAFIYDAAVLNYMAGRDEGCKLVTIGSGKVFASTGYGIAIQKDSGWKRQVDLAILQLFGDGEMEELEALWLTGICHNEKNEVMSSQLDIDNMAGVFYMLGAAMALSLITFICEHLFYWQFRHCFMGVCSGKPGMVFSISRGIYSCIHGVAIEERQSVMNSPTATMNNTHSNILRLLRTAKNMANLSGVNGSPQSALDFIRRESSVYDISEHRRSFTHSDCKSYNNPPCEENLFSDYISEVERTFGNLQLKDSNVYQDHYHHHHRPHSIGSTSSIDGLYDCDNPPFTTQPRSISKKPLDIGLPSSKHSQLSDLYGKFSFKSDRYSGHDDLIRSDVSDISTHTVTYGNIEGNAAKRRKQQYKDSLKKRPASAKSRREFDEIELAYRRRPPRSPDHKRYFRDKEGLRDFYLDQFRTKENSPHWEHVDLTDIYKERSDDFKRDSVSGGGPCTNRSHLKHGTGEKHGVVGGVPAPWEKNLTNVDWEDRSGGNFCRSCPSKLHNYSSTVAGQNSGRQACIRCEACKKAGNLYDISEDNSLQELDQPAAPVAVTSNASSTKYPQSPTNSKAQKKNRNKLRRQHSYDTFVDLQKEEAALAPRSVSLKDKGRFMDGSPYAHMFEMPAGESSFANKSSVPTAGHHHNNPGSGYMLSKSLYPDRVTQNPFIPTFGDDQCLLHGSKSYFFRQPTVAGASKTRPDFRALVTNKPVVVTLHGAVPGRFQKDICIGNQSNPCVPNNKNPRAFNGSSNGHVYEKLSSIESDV

In the case of `Cc1ccc(CN2OCC(N3CCN(c4ccc(O)cn4)CC3)C2=O)cc1` (single isomer, unassigned) [Example 10, P-1, 4-(4-(5-hydroxypyridin-2-yl)piperazin-1-yl)-2-(4-methylbenzyl)isoxazolidin-3-one], the Ki ([1]; listed as 10, P-1, read-out: NR2B Binding Ki) is reported as 3.2 nM, the Ki ([1]; read-out: binding Ki) is reported as 3.2 nM and the immobility time (mice) is reported as “statistically significant decrease”.
